The values that follow come from patent publication US20250228882A1, “ORALLY-BIOAVAILABLE NUCLEOSIDE ANALOGS” (Venatorx Pharmaceuticals, Inc., priority 2022, published 2025).

Molecules are shown by their SMILES. Read-outs that look alike come from different tables or passages of the source.

A short description of the data set: Bidirectional Caco-2 permeability assay. The format is in vitro ADME. The following applies: human. On the procedure:
The bidirectional permeability of compounds across the Caco-2 cell monolayer was assessed. The Caco-2 model is a widely used in vitro model for small intestinal absorption and potential for efflux. Cell culture. Caco-2 cells were grown in DMEM supplemented with 10% fetal bovine serum (FBS), 1% Penicillin-Streptomycin and 1% MEMNEAA. The cells were incubated at 37° C., 5% CO2/95% air and saturated humidity. After reaching 80-90% confluency, the cells were gently detached with trypsin. Cells at passage 39 were seeded on the 24-well BD insert system at the density of 8×10^4 cells/cm^2 and cultured for 19 days with medium changed every 2-3 days. Measure the transepithelial electrical resistance (TEER) value of each well. The wells can be used only when their TEER values are greater than 600 Ohms/cm^2.
Transport assay. After removing the cell culture medium from the 24-well insert plate, the cells were rinsed with warm transport buffer. Appropriate dosing and receiving solutions were applied to the donor and receiver chambers to initiate the transport assay in apical to basolateral (A to B) or basolateral to apical (B to A) directions (500 and 1300 μL for apical and basolateral wells, respectively). Duplicate wells in each direction were used for the test compound and control compound. The plate was incubated in CO2 incubator at 37° C., with 5% CO2/95% air and saturated humidity without shaking. The sample after 10-minute incubation was used as the To sample, and the sample after 90-minute incubation was used as the T90 sample. To and T90 samples were collected from the donor and receiver side of each well at the designed timepoint, mixed with the transport buffer and acetonitrile/MeOH (1:1, v/v) and the internal standard for LC/MS/MS analysis. All samples were vortexed and centrifuged at 4000 rpm at 4° C. for 15 minutes, diluted with pure water and stored at 4° C. before bioanalysis by LC/MS/MS.
Sample analysis. The concentrations of test compounds and control compounds in Caco-2 cells were quantitatively determined by LC/MS/MS method after protein precipitation.
Calculations. The apparent permeability (Papp, cm/s), efflux ratio (ER) and recovery parameters were calculated for Caco-2 drug transport assay using the following equations: […]
where VR is the solution volume in the receiver chamber (0.4 mL on the apical side, 1.2 mL on the basolateral side); Area is the surface area for the insert membrane, i.e., 0.3 cm^2 for the area of the monolayer; Time is incubation time, expressed in seconds, i. e., 5400 s (90 min) for the current experiment; Co is the initial concentration of test compound or peak area ratio of control compounds in the donor chamber (M); VD is the volume in the donor chambers (0.4 mL on the apical side, 1.2 mL on the basolateral side); CD and CR are the final concentrations of test compounds or peak area ratio of control compounds in donor and receiver chambers, respectively.
Compounds with Papp<1.0 are classified as low permeability, Papp between 1-10 are classified as medium permeability, and Papp>10 are classified as high permeability. An efflux ratio (ER)>2 indicates the compounds are potential substrates for intestinal cell efflux transporters.
A general note: Caco-2 monolayers are a common model of the intestinal barrier.

Where [1] appears, read: Caco-2 monolayer, apical to basolateral, 90-minute incubation, read-out: Papp, A-B.
Where [2] appears, read: Caco-2 monolayer, basolateral to apical, 90-minute incubation, read-out: Papp, B-A.
Where [3] appears, read: Caco-2 monolayer, ER>2 indicates potential efflux substrate, read-out: ER (efflux ratio).

With `CC(C)NC(=O)Nc1ncnn2c([C@]3(C#N)O[C@H](COC(=O)Cc4ccccc4)[C@@H](OC(=O)[C@@H](N)C(C)(C)C)[C@H]3O)ccc12` [Compound 29, (2R,3S,4R,5R)-5-cyano-4-hydroxy-5-(4-(3-isopropylureido)pyrrolo[2,1-f][1,2,4]triazin-7-yl)-2-((2-phenylacetoxy)methyl)tetrahydrofuran-3-yl (S)-2-amino-3,3-dimethylbutanoate], the Papp A→B at 90 min under setting [1] was 1.69 ×10⁻⁶ cm/s. Further, the Papp B→A at 90 min under setting [2] turned out to be 19.6 ×10⁻⁶ cm/s. Moreover, the efflux ratio at 90 min under setting [3] came out at 11.6.
The like results for `CC(=O)OCOC(=O)Nc1ncnn2c([C@]3(C#N)O[C@H](COC(=O)Cc4ccccc4)[C@@H](OC(=O)[C@@H](N)C(C)(C)C)[C@H]3O)ccc12` [Compound 30, (2R,3S,4R,5R)-5-(4-(((acetoxymethoxy)carbonyl)amino)pyrrolo[2,1-f][1,2,4]triazin-7-yl)-5-cyano-4-hydroxy-2-((2-phenylacetoxy)methyl)tetrahydrofuran-3-yl (S)-2-amino-3,3-dimethylbutanoate] were, in that order, 0.09 ×10⁻⁶ cm/s, 3.11 ×10⁻⁶ cm/s and 34.6.
For `CC(C)(C)[C@H](N)C(=O)OC[C@H]1O[C@@](C#N)(c2ccc3c(N)ncnn23)[C@H](O)[C@@H]1OC(=O)CC1CCCCC1` [Compound 32, ((2R,3S,4R,5R)-5-(4-aminopyrrolo[2,1-f][1,2,4]triazin-7-yl)-5-cyano-3-(2-cyclohexylacetoxy)-4-hydroxytetrahydrofuran-2-yl)methyl (S)-2-amino-3,3-dimethylbutanoate], for the setting “Caco-2”, the Papp A→B at 90 min is 15.4 ×10⁻⁶ cm/s, the Papp B→A at 90 min was 20.7 ×10⁻⁶ cm/s and the efflux ratio at 90 min is 1.34.
In turn, `CC(=O)Nc1ncnn2c([C@]3(C#N)O[C@H](COC(=O)[C@@H](N)C(C)(C)C)[C@@H](OC(=O)CC4CCCCC4)[C@H]3O)ccc12` [Compound 33, ((2R,3S,4R,5R)-5-(4-acetamidopyrrolo[2,1-f][1,2,4]triazin-7-yl)-5-cyano-3-(2-cyclohexylacetoxy)-4-hydroxytetrahydrofuran-2-yl)methyl (S)-2-amino-3,3-dimethylbutanoate] displayed a Papp A→B at 90 min (Caco-2) of 24.4 ×10⁻⁶ cm/s.
Consider `CC(=O)OCOC(=O)Nc1ncnn2c([C@]3(C#N)O[C@H](COC(=O)[C@@H](N)C(C)(C)C)[C@@H](OC(=O)CC4CCCCC4)[C@H]3O)ccc12` [Compound 36, ((2R,3S,4R,5R)-5-(4-(((acetoxymethoxy)carbonyl)amino)pyrrolo[2,1-f][1,2,4]triazin-7-yl)-5-cyano-3-(2-cyclohexylacetoxy)-4-hydroxytetrahydrofuran-2-yl)methyl (S)-2-amino-3,3-dimethylbutanoate], for which, where the note is “Caco-2”, the Papp A→B at 90 min amounted to 0.93 ×10⁻⁶ cm/s, the Papp B→A at 90 min was found to be 1.15 ×10⁻⁶ cm/s and the efflux ratio at 90 min worked out at 1.24.
The matching figures for `CC(C)(C)[C@H](N)C(=O)OC[C@H]1O[C@@](C#N)(c2ccc3c(NC(=O)CC4CCCCC4)ncnn23)[C@H](O)[C@@H]1O` [Compound 39, ((2R,3S,4R,5R)-5-cyano-5-(4-(2-cyclohexylacetamido)pyrrolo[2,1-f][1,2,4]triazin-7-yl)-3,4-dihydroxytetrahydrofuran-2-yl)methyl (S)-2-amino-3,3-dimethylbutanoate]: 0.72 ×10⁻⁶ cm/s, 16.9 ×10⁻⁶ cm/s and 23.4.
In the case of `CCC(=O)O[C@H]1[C@@H](O)[C@](C#N)(c2ccc3c(NC(=O)OCOC(=O)C(C)(C)C)ncnn23)O[C@@H]1COC(=O)[C@@H](N)C(C)(C)C` [Compound 40, ((2R,3S,4R,5R)-5-cyano-4-hydroxy-5-(4-((((pivaloyloxy)methoxy)carbonyl)amino)pyrrolo[2,1-f][1,2,4]triazin-7-yl)-3-(propionyloxy)tetrahydrofuran-2-yl)methyl (S)-2-amino-3,3-dimethylbutanoate], for the setting “Caco-2”, the Papp A→B at 90 min stood at 0.13 ×10⁻⁶ cm/s, the Papp B→A at 90 min is 4.5 ×10⁻⁶ cm/s and the efflux ratio at 90 min turned out to be 34.4.
The like results for `CCCCCCOC(=O)Nc1ncnn2c([C@]3(C#N)O[C@H](COC(=O)[C@@H](N)C(C)(C)C)[C@@H](O)[C@H]3O)ccc12` [Compound 41, ((2R,3S,4R,5R)-5-cyano-5-(4-(((hexyloxy)carbonyl)amino)pyrrolo[2,1-f][1,2,4]triazin-7-yl)-3,4-dihydroxytetrahydrofuran-2-yl)methyl (S)-2-amino-3,3-dimethylbutanoate] were, in that order, 1.41 ×10⁻⁶ cm/s, 14.6 ×10⁻⁶ cm/s and 10.4.
The like results for `CCCCCCOC(=O)Nc1ncnn2c([C@]3(C#N)O[C@H](COC(=O)[C@@H](N)C(C)(C)C)[C@@H](OC(=O)CC)[C@H]3O)ccc12` [Compound 42, ((2R,3S,4R,5R)-5-cyano-5-(4-(((hexyloxy)carbonyl)amino)pyrrolo[2,1-f][1,2,4]triazin-7-yl)-4-hydroxy-3-(propionyloxy)tetrahydrofuran-2-yl)methyl (S)-2-amino-3,3-dimethylbutanoate] were, in that order, 4.24 ×10⁻⁶ cm/s, 3.97 ×10⁻⁶ cm/s and 0.94.
The like results for `CCC(=O)O[C@H]1[C@@H](O)[C@](C#N)(c2ccc3c(NC(=O)OCOC(C)=O)ncnn23)O[C@@H]1COC(=O)[C@@H](N)C(C)(C)C` [Compound 43, ((2R,3S,4R,5R)-5-(4-(((acetoxymethoxy)carbonyl)amino)pyrrolo[2,1-f][1,2,4]triazin-7-yl)-5-cyano-4-hydroxy-3-(propionyloxy)tetrahydrofuran-2-yl)methyl (S)-2-amino-3,3-dimethylbutanoate] were, in that order, 1.49 ×10⁻⁶ cm/s, 1.02 ×10⁻⁶ cm/s and 0.69.
For `CC(=O)OCOC(=O)Nc1ncnn2c([C@]3(C#N)O[C@H](COC(=O)CC4CCCCC4)[C@@H](OC(=O)[C@@H](N)C(C)(C)C)[C@H]3O)ccc12` [Compound 46, (2R,3S,4R,5R)-5-(4-(((acetoxymethoxy)carbonyl)amino)pyrrolo[2,1-f][1,2,4]triazin-7-yl)-5-cyano-2-((2-cyclohexylacetoxy)methyl)-4-hydroxytetrahydrofuran-3-yl (S)-2-amino-3,3-dimethylbutanoate], under “Caco-2”, the Papp A→B at 90 min is 1.45 ×10⁻⁶ cm/s, the Papp B→A at 90 min came out at 0.79 ×10⁻⁶ cm/s and the efflux ratio at 90 min is 0.54.
The matching figures for `CCCCC(=O)Nc1ncnn2c([C@]3(C#N)O[C@H](COC(=O)CC4CCC4)[C@@H](OC(=O)[C@@H](N)C(C)(C)C)[C@H]3O)ccc12` [Compound 47, (2R,3S,4R,5R)-5-cyano-2-((2-cyclobutylacetoxy)methyl)-4-hydroxy-5-(4-pentanamidopyrrolo[2,1-f][1,2,4]triazin-7-yl)tetrahydrofuran-3-yl (S)-2-amino-3,3-dimethylbutanoate]: 4.57 ×10⁻⁶ cm/s, 12.2 ×10⁻⁶ cm/s and 2.68.
For the compound `CCCCCC(=O)Nc1ncnn2c([C@]3(C#N)O[C@H](COC(=O)CC4CCC4)[C@@H](OC(=O)[C@@H](N)C(C)(C)C)[C@H]3O)ccc12` [Compound 48, (2R,3S,4R,5R)-5-cyano-2-((2-cyclobutylacetoxy)methyl)-5-(4-hexanamidopyrrolo[2,1-f][1,2,4]triazin-7-yl)-4-hydroxytetrahydrofuran-3-yl (S)-2-amino-3,3-dimethylbutanoate], where the note is “Caco-2”, the Papp A→B at 90 min was 2.02 ×10⁻⁶ cm/s, the Papp B→A at 90 min was 4.72 ×10⁻⁶ cm/s and the efflux ratio at 90 min came to 2.34.
In the case of `CCOC(C)(C)C(=O)Nc1ncnn2c([C@]3(C#N)O[C@H](COC(=O)CC4CCC4)[C@@H](OC(=O)[C@@H](N)C(C)(C)C)[C@H]3O)ccc12` [Compound 49, (2R,3S,4R,5R)-5-cyano-2-((2-cyclobutylacetoxy)methyl)-5-(4-(2-ethoxy-2-methylpropanamido)pyrrolo[2,1-f][1,2,4]triazin-7-yl)-4-hydroxytetrahydrofuran-3-yl (S)-2-amino-3,3-dimethylbutanoate], where the note is “Caco-2”, the Papp A→B at 90 min came out at 6.24 ×10⁻⁶ cm/s, the Papp B→A at 90 min was found to be 5.67 ×10⁻⁶ cm/s and the efflux ratio at 90 min amounted to 0.91.

One may read the Papp A→B as the apparent permeability from the apical to the basolateral side of a cell layer. Broadly, the Papp B→A is the apparent permeability from the basolateral to the apical side of a cell layer.
